Data on eight substances can be found in patent US8466118B2, “Modulation of blood brain barrier protein expression” (Saint Louis University, priority 2007, dated 2013).

Oligonucleotides are written 5' to 3', each unit as a sugar letter and its base; * is a phosphorothioate linkage, no mark a phosphodiester; rarer units and linkages stand in square brackets, end groups in braces. Plain capitals give the bases only. No end group written: not given here. d = 2'-deoxy (DNA) Where only a bound is given, the exact number is not on record here.

One data set concerns mouse brain microvessels. Kind of data set: I-PACAP27 binding to isolated mouse brain microvessels. To be noted: for displacement of I-PACAP27 binding by unlabeled peptide: 50 nM unlabeled peptide, 2.5 min. How it is done: Binding Study. Freshly isolated microvessels (30 μg protein) were resuspended in 45 μl of incubation buffer (129 mM NaCl, 2.5 mM KCl, 7.4 mM Na2HPO4, 1.3 mM KH2PO4, 0.63 mM CaCl2, 0.74 mM MgSO4, 5.3 mM glucose, 0.1 mM ascorbic acid, pH 7.4) containing 1% bovine serum albumin (BSA). Microvessel protein levels were determined with the Biorad DC protein assay kit (Hercules, Calif.). Incubation buffer, PACAP27 (4 μl of 0.8 nM), and any additives as indicated below were mixed with the 45 μl suspension of cells to a final volume of 60 μl (to give a final PACAP27 concentration of 53 pM) and incubated for 2.5 min at room temperature unless otherwise specified. At the end of incubation, samples were assayed for protein-bound radioactivity by vacuum filtration through Gelman Sciences glass microfiber filters (Ann Arbor, Mich.) pretreated with 0.5% polyethyleneimine. Filters were washed three times with 4 ml of incubation buffer at 4° C. The radioactivity trapped on the filters was measured using a gamma-counter. Nonspecific binding was determined in the absence of microvessels and under the above conditions was 20% of the total binding (TB). The specific binding was calculated as total binding minus non-specific binding and expressed as a percentage. All experiments were performed in triplicate on at least three occasions and the results reported as means with their standard errors.
Inhibition of Specific Binding of PACAP27. Self-inhibition was tested by adding varying amounts of unlabeled PACAP27. The percent of specific binding was calculated by taking the % TB for microvessels incubated with 0.8 nM PACAP27 as 100% and without microvessel incubation as 0%. An n of 3 was used per concentration. The fmol specifically bound was calculated by dividing the percent of specific binding by 100 and multiplying by the pM (PACAP27 and any unlabeled PACAP27 combined) of the incubation solution and by the volume. This was plotted against the nM in the media and the relation fitted to a one-site hyperbolic binding model.
Inhibition of I-PACAP27 Binding by PACAP Related Peptides. The effects of 50 nM of unlabeled PACAP27, PACAP38, the PACAP antagonists PACAP 6-27 and PACAP 6-38 (Bachem, Torrance, Calif.), and VIP (Sigma, St. Louis, Mo.) on PACAP27 specific binding was determined. Results were expressed as percent of control.

For a further data set, the target named is Type-I binding sites. The settings on record: anterior pituitary and hypothalamus, I-PACAP27 radioligand; cited from earlier work.
Data set [1] in a line: CNS pharmacokinetics of iv P-Olg (influx rate, saturability, capillary depletion, regional uptake). The format is in vivo, mouse. To be noted: for distribution between brain capillaries and parenchyma (capillary depletion) / saturability of brain uptake: 30 min after iv; for distribution between brain capillaries and parenchyma (capillary depletion): with vascular washout; for saturability of brain uptake: co-administration of 10 μg unlabeled PS-ODN; for rate of brain uptake (Ki): iv (jugular), multiple-time regression 2-30 min; for mean regional uptake into hippocampus (HPC) versus frontal cortex (FC) and whole brain (WB): iv, 2-30 min. The method, then:
For this analysis, the brain/serum ratios for time points ranging from 2 to 30 min after i.v. injection was plotted against their respective exposure times (Expt). Expt is used instead of real time because this value corrects for the clearance of the injected substance from the blood. Without this correction, the influx rate would be overestimated. […] Expt will be calculated using the following formula: Expt=[∫^toCp(t)dt]/Cpt, where t is time, Cp represents the level of radioactivity in the serum and Cpt is the level of radioactivity in the serum at time t.
(§1) Calculation of the percent of injected dose taken up per gram of tissue: For the purpose of these studies, mice were injected iv (into the jugular vein) with P-19 mer or P-23 mer (5×10^5 cpm/200 μl of Lactated Ringer's solution (Baxter Healthcare Corporation, Deerfiled, Ill.) supplemented with 1% BSA). […] Serum levels of radioactivity were determined by counting 50 μl of serum in a gamma counter.
(§2) The % of the injected dose taken up by each gram of either whole brain, brain region (hippocampus or frontal cortex) or liver tissue (% Inj dose/g brain) was calculated using the following formula: % Inj dose/g brain=100(Am/Cpt−Vi)Cpt/Inj, where Am/Cpt represents the brain/serum ratio at time t, and Inj is the mean dose injected i.v. Subtracting Vi from the tissue/serum ratio corrects for P-Olg in the vascular space of the whole tissue. This will remove the vascular component so that the quantities expressed represent only the P-Olg that has been taken up by tissue. The values for % Inj dose/g brain will be plotted against their respective time points (min).
Measuring saturability of brain uptake for cocktail ODNs: To determine if brain uptake of each individual P-Olg was saturable, 10 μg/mouse of unlabeled cocktail PS-ODN (either 19 mer or 23 mer) was included in the i.v. injection of either P-19 mer or P-23 mer at a dose of 5×10^5 cpm/200 μl of Lactated Ringer's solution supplemented with 1% BSA [LR-BSA]). Brain and serum samples were collected 30 min after i.v. injection. Results were expressed as brain/serum ratios.
In these studies, mice received an iv injection of either P-19 mer or P-23 mer at a dose of 5×10^5 cpm/200 μl LR-BSA into the jugular vein. Washout of the vascular space was performed to remove any substances that were intravascular or loosely adhered to the capillary lumen of the brain microvasculature.
Mice were anesthetized with 40% urethane and, at 30 min after i.v. injection of P-Olg into the jugular vein, the abdomen was opened and arterial blood was collected from the abdominal aorta. Next, the thorax was opened with a midline sternal incision and the descending thoracic aorta was clamped to cut off the circulation to the lower body. Both jugular veins were severed and an 18-gauge needle connected to a 20 ml syringe containing lactated Ringers (LR) solution was inserted into the left ventricle of the heart. All 20 ml of LR were infused into the mouse heart over a period of 1-2 min. This washes out the vascular space of the brain and drains out the severed jugular veins. […] Next, the homogenate was vortexed and homogenized a second time (3 strokes). All homogenization steps were performed at 4° C. on ice. […] After centrifugation, the supernatant containing the brain parenchyma was separated from the pellet (containing the brain microvasculature) and the level of radioactivity was determined with a Beckman scintillation counter.
Results from the capillary depletion experiments were expressed as the volume of distribution in the brain or capillaries for the injected substance. Volume of distribution (VD) values were expressed as tissue (parenchyma or capillary)/serum ratios and were calculated for both fractions using the following formula: VD=(cpm/gram of tissue)/(cpm/ml of serum)

A short description of data set [2]: Percent of iv injected dose taken up per gram of brain or liver. The format is in vivo, mouse. The method, then: as §1, §2
For these studies, the PS-ODNs were delivered iv and relative uptake into the brain and liver (from 5-30 min) were studied.

A short description of data set [3]: Brain-to-blood efflux rate of icv P-Olg. The format is in vivo, mouse. The settings on record: for half-life of efflux from the brain: first 20 min after icv administration; for rate of brain efflux: icv injection. The method, then: First, mice were anesthetized with an i.p. injection of 40% urethane. After the scalp was removed, a hole was made through the cranium (1.0 mm lateral and 0.5 mm posterior to bregma) with a 26-gauge needle. All of the needle except 2.5 to 3.0 mm of the tip was covered by PE-10 tubing. […] Injections were made into the lateral ventricle (icv) with a 1.0 μl Hamilton syringe.
In experiments in which brain efflux of the cocktail PS-ODNs were determined, each P-Olg (either P-19 mer or P-23 mer) was studied separately. A P-Olg (5×10^3 cpm/μl) was administered by icv injection. Mice were then decapitated at 2, 5, and 20 min after injection and the brain was removed. The amount of radioactivity present in the brain was measured by a scintillation counter. The amount of radioactivity in the brain at t=0 was estimated in mice overdosed with urethane. […] Brains from these mice were removed 10 min after injection. The log of the mean % of the injected dose of radioactivity (amount detected/amount injected*100=% Inj Dose) in each brain was plotted against time (min) and linear regression analysis was used to create a line between these time points.

The target in the next data set is T1, beta-F1 ATPase (Mus musculus, UniProt P56480).
T1 construct: from tissue; host or cells: brain / blood-brain barrier of living mice (CD-1; SAMP8 in the T-maze study)
Kind of data set: Brain perfusion uptake of I-PACAP27/I-PACAP38 after iv antisense. To be noted: single tail vein injection 24 h before study, 10 μg/mouse. The format is in vivo. The method, then: To test the effectiveness of PTS-6 antisenses after their intravenous administration, two month old male CD-1 mice kept on a 12/12 hour light/dark cycle with food and water freely available were given an injection by tail vein of 0.9% saline with or without 10 μg/mouse of each of the three antisenses. To determine the specificity of the PTS-6 antisense on I-PACAP27 efflux, three other antisenses were also injected iv. These were:
After 24 h, the mice were anesthetized with urethane and both jugular veins exposed. The thorax was opened, the descending thoracic aorta clamped, both jugular veins severed, and lactated Ringer's solution containing I-PACAP27 (250,000 cpm/ml) perfused through the left ventricle of the heart at the rate of 2 ml/min. ^131I-PACAP38 (hereafter referred to as I-PACAP38) was perfused in some mice treated with PTS-6 antisense. After 5 min, the perfusion was stopped and 20 ml of lactated Ringer's solution was infused through the left ventricle of the heart to wash out the vascular space of the brain. The level of radioactivity was determined in the brain and in an aliquot of the perfusion fluid and results expressed as the brain/perfusion ratio in units of μl/g.

T1 sequence (P56480 47-529): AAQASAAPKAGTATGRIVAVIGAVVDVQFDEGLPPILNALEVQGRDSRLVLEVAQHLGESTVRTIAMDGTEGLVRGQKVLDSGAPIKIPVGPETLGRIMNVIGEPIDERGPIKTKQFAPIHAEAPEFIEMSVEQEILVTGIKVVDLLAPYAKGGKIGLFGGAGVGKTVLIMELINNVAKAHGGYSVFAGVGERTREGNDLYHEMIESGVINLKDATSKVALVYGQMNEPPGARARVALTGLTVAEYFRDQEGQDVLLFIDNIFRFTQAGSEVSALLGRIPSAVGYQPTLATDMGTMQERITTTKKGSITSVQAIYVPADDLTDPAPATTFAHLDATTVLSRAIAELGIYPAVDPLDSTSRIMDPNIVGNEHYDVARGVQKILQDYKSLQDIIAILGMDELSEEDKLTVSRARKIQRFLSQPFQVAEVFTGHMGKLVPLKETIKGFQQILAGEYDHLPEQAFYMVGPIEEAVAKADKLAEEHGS

Consider PACAP [PACAP27], for which the “time at which specific binding reached a maximum” value in the data set with mouse brain microvessels (53 pM, room temperature) is “about 20 min”. Besides, the “displacement of I-PACAP27 binding by unlabeled peptide” value (shortened to “displacement of I-PACAP27 binding”) in the data set on mouse brain microvessels (room temperature) was “PACAP38>PACAP27>PACAP(6-38)>PACAP(6-27)”. In the data set on mouse brain microvessels (self-inhibition of I-PACAP27 binding), the “amount of unlabeled PACAP27 above which binding was inhibited competitively” value is recorded as “above 30 ng”. On Type-I binding sites, the Kd is around 500 pM.
As for vasoactive intestinal polypeptide [VIP], the “displacement of I-PACAP27 binding” value in the data set with mouse brain microvessels (room temperature) is listed as “not affected”. Moreover, the equilibrium dissociation constant (Kd) on Type-I binding sites is above 500000 pM.
In the case of “PACAP(6-27): PACAP antagonist (FTDSYSRYRKQMAVKKYLAAVL; ends and bridges not checked)”, the “displacement of I-PACAP27 binding” value with mouse brain microvessels (room temperature) is given as “PACAP38>PACAP27>PACAP(6-38)>PACAP(6-27)”.
In the case of “5′-(_P═S)TGATTTGGTCTCTGCAGGC-3′ (antisense dT*dG*dA*dT*dT*dT*dG*dG*dT*dC*dT*dC*dT*dG*dC*dA*dG*dG*dC; listed as Mus musculus) [P-19 mer]”, in data set [1], the “distribution between brain capillaries and parenchyma (capillary depletion)” value is “detected in the target tissue, the brain capillaries”; the “saturability of brain uptake” value was “not significantly decreased”; the “rate of brain uptake (Ki)” value worked out at 0.18 µL/g/min; the “mean regional uptake into hippocampus (HPC) versus frontal cortex (FC) and whole brain (WB)” value is given as “greater than the uptake into the WB”. Further, in data set [2] (5 min after iv injection), the “percentage taken up by each gram of brain” value amounted to 0.042 % Inj dose/g and the “percentage taken up by each gram of liver” value is 447 % Inj dose/g. Besides, in data set [2] (10 min after iv injection), the “percentage taken up by each gram of brain” value turned out to be 0.079 % Inj dose/g and the “percentage taken up by each gram of liver” value was 5.54 % Inj dose/g. In addition, in data set [2] (30 min after iv injection), the “percentage taken up by each gram of brain” value is 0.116 % Inj dose/g and the “percentage taken up by each gram of liver” value stood at 10.43 % Inj dose/g. In data set [3], the “half-life of efflux from the brain” value was determined as 3.858 h and the “rate of brain efflux” value was 0.0013 % of the injected dose/min.
Regarding “5′-(_P═S)GTGTGGGCCGATGCAAACAGCAG-3′ (antisense dG*dT*dG*dT*dG*dG*dG*dC*dC*dG*dA*dT*dG*dC*dA*dA*dA*dC*dA*dG*dC*dA*dG; listed as Mus musculus) [P-23 mer]”, in data set [1], the “distribution between brain capillaries and parenchyma (capillary depletion)” value is given as “detected in the target tissue, the brain capillaries”; the “saturability of brain uptake” value is on record as “significantly reduced”; the “rate of brain uptake (Ki)” value worked out at 0.20 µL/g/min; the “mean regional uptake into hippocampus (HPC) versus frontal cortex (FC) and whole brain (WB)” value is “significantly greater”. For the same substance, in data set [2] (5 min after iv injection), the “percentage taken up by each gram of brain” value was determined as 0.010 % Inj dose/g and the “percentage taken up by each gram of liver” value is listed as 2.71 % Inj dose/g. For the same substance, in data set [2] (10 min after iv injection), the “percentage taken up by each gram of brain” value stood at 0.044 % Inj dose/g and the “percentage taken up by each gram of liver” value is on record as 5.33 % Inj dose/g. In addition, in data set [2] (30 min after iv injection), the “percentage taken up by each gram of brain” value is on record as 0.052 % Inj dose/g and the “percentage taken up by each gram of liver” value was 7.67 % Inj dose/g. In data set [3], the “half-life of efflux from the brain” value was found to be 0.797 h and the “rate of brain efflux” value is reported as 0.0063 % of the injected dose/min.
For “5′-(_P═S)GATCACGTACACATCGACACCAGTCGCCATGACTGAGCTT (dG*dA*dT*dC*dA*dC*dG*dT*dA*dC*dA*dC*dA*dT*dC*dG*dA*dC*dA*dC*dC*dA*dG*dT*dC*dG*dC*dC*dA*dT*dG*dA*dC*dT*dG*dA*dG*dC*dT*dT; listed as Mus musculus) [random 42-mer]”, the “uptake of I-PACAP27 delivered by brain perfusion” value with beta-F1 ATPase is reported as “no statistically significant effect”.
Regarding “PACAP38: biologically active form of pituitary adenylate cyclase-activating polypeptide”, in the data set on mouse brain microvessels (room temperature), the “displacement of I-PACAP27 binding” value is recorded as “PACAP38>PACAP27>PACAP(6-38)>PACAP(6-27)”. Further, the Kd on Type-I binding sites is around 500 pM.
Regarding “PACAP(6-38): PACAP antagonist (FTDSYSRYRKQMAVKKYLAAVLGKRYKQRVKNK; ends and bridges not checked)”, in the data set on mouse brain microvessels (room temperature), the “displacement of I-PACAP27 binding” value is listed as “PACAP38>PACAP27>PACAP(6-38)>PACAP(6-27)”.

What is called Kd is the constant that tells how readily two partners part at equilibrium.
